Laboratory results: US6410558B1, “Fungicides for the control of take-all disease of plants” (Monsanto Technology LLC, priority 1991, dated 2002)

System: Gaeumannomyces graminis var. tritici (Ggt)
Assay: In vitro Assay: mycelial growth of Ggt on minimal media agar plates containing test compound
Assay type: cell-based
Conditions: dark, 19-20° C., 4 to 5 days, diameter of mycelial growth; for inhibition at 0.1 ppm / inhibition at 1 ppm / inhibition at 10 ppm: Gaeumannomyces graminis; for inhibition at 0.1 ppm: read-out: In vitro (ppm) 0.1, Percent Inhibition; for inhibition at 1 ppm: read-out: In vitro (ppm) 1, Percent Inhibition; for inhibition at 10 ppm: read-out: In vitro (ppm) 10, Percent Inhibition
Procedure: The test compounds (0.25 mL of an appropriate stock solution in acetone) are incorporated into 25 mL minimal media agar [(prepared by autoclaving a solution of 17.5 g Czapek Dox broth (Difco), 7.5 g purified agar or Bacto-agar (Difco), and 500 mL distilled/deionized water, and then adding 50 μL of 1 mg/mL thiamine hydrochloride and 50 μL of 1 mg/mL biotin in 5% ethanol] and plates are prepared.
Each plate is inoculated by placing in a triangular shape three 4-mm plugs of Gaeumannomyces graminis var. tritici (Ggt) grown on the minimal media agar described above. The plates are incubated in the dark at 19-20° C. for 4 to 5 days. The growth of the fungus is measured as the diameter of the mycelial growth. The result is expressed as Percent Inhibition, calculated as [1-[(mm growth on treated plate −4)/(mm growth on control plate −4)]]×100.

| SMILES | In vitro (ppm) 0.1, Percent Inhibition (0.1 ppm in minimal media agar) [%] | In vitro (ppm) 1, Percent Inhibition (1 ppm in minimal media agar) | In vitro (ppm) 10, Percent Inhibition (10 ppm in minimal media agar) [%] | inhibition at 0.1 ppm (0.1 ppm in minimal media agar) [%] | inhibition at 1 ppm (1 ppm in minimal media agar) [%] | inhibition at 10 ppm (10 ppm in minimal media agar) [%] |
| --- | --- | --- | --- | --- | --- | --- |
| CCN(CC)C(=O)c1c(Cl)cccc1N(C)C(C)(C)C [Example 281, 2-Chloro-6-[(1,1-dimethylethyl)methylamino]-N,N-(diethyl)benzamide] | 4 | N (If the calculation resulted in “0” or less, as compared to the untreated control, a “N” is shown to indicate no control.) | 43 |  |  |  |
| CCNC(=O)c1c(Cl)cccc1[Si](C)(C)C1CC2CCC1C2 (stereo not drawn) [Example 183, 2-(Bicyclo[2.2.1]Hept-2-yldimethylsilyl)-6-chloro-N-ethylbenzamide] |  |  |  | 24 | 35 | 56 |
| CCN(C(=O)c1cc(N(C)C)ccc1[Si](C)(C)C)C(OC)C(C)(C)C (stereo not drawn) [Example 222, 5-(Dimethylamino)-N-ethyl-N-(1-methoxy-2,2-dimethylpropyl)-2-(trimethylsilyl)benzamide] |  |  |  | < 0 | < 0 | 96 |
| CCC(C)SC(=O)c1c(Cl)cccc1[Si](C)(C)C (stereo not drawn) [Example 80, 2-Chloro-6-(trimethylsilyl)-benzenecarbothioic acid, S-(1-methylpropyl) ester] |  |  |  | < 0 | 4 | 46 |
| C[Si](C)(C)c1cccc(Cl)c1C(=O)Nc1ccccc1C1CCCC1 [Example 158, 2-Chloro-N-(2-cyclopentylphenyl)-6-(trimethylsilyl)benzamide] |  |  |  | 2 | 33 | 44 |
| CCNC(=O)c1c(Cl)cccc1-c1cccc2ccccc12 [Example 73, 2-Chloro-N-ethyl-6-(1-naphthalenyl)benzamide] |  |  |  | 13 | 60 | 83 |
| CCNC(=O)c1sccc1[Si](C)(C)C [Example 248, N-Ethyl-3-(trimethylsilyl)-2-thiophenecarboxamide] |  |  |  | 10 | 10 | 100 |
| CCNC(=O)c1c(F)cccc1[Si](C)(C)C [Example 117, N-Ethyl-2-fluoro-6-(trimethylsilyl)benzamide] |  |  |  | 36 | 94 | 97 |
| CCOP(=O)(OCC)N(CC)C(=O)c1c(Cl)cccc1[Si](C)(C)C [Example 278, [2-Chloro-6-(trimethylsilyl)benzoyl]ethylphosphoramidic acid, diethyl ester] |  |  |  | < 0 | 50 | 75 |
| CCNC(=O)Nc1c(Cl)cccc1[Si](C)(C)C [Example 110, N-[2-Chloro-6-(trimethylsilyl)phenyl]-N′-ethylurea] |  |  |  | 7 | 17 | 45 |
| CC1C=CC(C)N1C(=O)c1c(Cl)cccc1[Si](C)(C)C (stereo not drawn) [Example 149, 1-[2-Chloro-6-(trimethylsilyl)benzoyl)-2,5-dihydro-2,5-dimethyl-1H-pyrrole] |  |  |  | < 0 | < 0 | 80 |
| CCNC(=O)n1cccc1[Si](C)(C)C [Example 178, N-Ethyl-2-(trimethylsilyl)-1H-pyrrole-1-carboxamide] |  |  |  | < 0 | 15 | 54 |
| COc1cccc(CNC(=O)c2c(Cl)cccc2[Si](C)(C)C)c1 [Example 139, 2-Chloro-N-[(3-methoxyphenyl)methyl]-6-(trimethylsilyl)benzamide] |  |  |  | 11 | 53 | 100 |
| CCN(CC)C(=O)c1ccc(C)c(F)c1[Si](C)(C)C [Example 57, N,N-Diethyl-3-fluoro-4-methyl-2-(trimethylsilyl)benzamide] |  |  |  | 10 | < 0 | 90 |
| CCN(CC)C(=O)c1c([Si](C)(C)C)ccc([Si](C)(C)C)c1Cl [Example 86, N,N-Diethyl-2-chloro-3,6-bis(trimethylsilyl)benzamide] |  |  |  | < 0 | 24 | 72 |
